Earlier results on 1 molecule are cited in patent publication US20100272800A1 (SANOVEL ILAC SANAYI VE TICARET ANONIM SIRKETI, priority 2009, published 2010).

`Cc1cc2c(s1)Nc1ccccc1N=C2N1CCN(C)CC1` [Olanzapine, 2-methyl-4-(4-methyl-1-piperazinyl)-10H-thieno[2,3-b][1,5] benzodiazepine]: the solubility in water entry is reported as “practically insoluble in water”.
